Molecules are shown by their SMILES.

We go through one molecule from patent publication US20130158111A1, “Compositions and Methods for Depleting Mutant p53” (Georgetown University, priority 2011, published 2013).

In assay [1] the target is T1, mutant (G245C) p53 DNA-binding domain (Homo sapiens, UniProt P04637, G245C).
T1 construct: made in house; host or cells: Escherichia coli BL21
Briefly: Monochlorobimane fluorometric cysteine binding assay. The note with it: 100 μM ITC, 1 h, 32 C; compared with trityl ITC, cyclohexylmethyl ITC, SFN, AITC, and PITC (p<0.05). How it is done:
BL21 […] Escherichia coli were transformed with pET29b wild-type or mutant (G245C) p53 DNA binding domain (DBD) plasmids. The E. coli were then cultured in LB media supplemented with 100 μM ZnCl2 and 25 μg/mL kanamycin at 37° C. until OD600=0.6-0.8. Protein expression was induced by 0.1 mM isopropyl β-D-1-thiogalactopyranoside for 16 h at 37 gC for wild-type and 16 gC for mutant p53. Bacterial pellets were then harvested by centrifugation at 5000×g, 10 min, 4 gC, and lysed via sonication in 50 mM Tris, 50 mM KCl, 5 mM dithiothreitol, 1 mM PMSF, pH 7 buffer. The soluble fraction was passed through a Capto S cation exchange column (GE Healthcare) and eluted with 50 mM Tris, 200 mM KCl, 5 mM DTT, pH 7. Eluted protein was dialyzed overnight against a non-salt dialysis buffer (50 mM Tris, 5 mM DTT, pH 7) and loaded onto a HiTrap Heparin HP column (GE Healthcare). The p53 DBD was purified via a AKTApurifier-10 protein liquid chromatography system (GE Healthcare) with an increasing KCl salt gradient, and purity was tested by SDSPAGE and Coomassie blue staining. Purified protein was dialyzed in PBS, and protein concentrations were determined prior to performing fluorescence experiments.
In a white 96-well plate, 100 μL of purified mutant (G245C) p53 DNA-binding domain protein in PBS was treated with DMSO, 100 μM ITCs in DMSO, or 500 μM iodoacetamide (positive binding control). An additional well containing 100 μL of PBS was used to determine background. Samples were incubated with compounds in the dark for 1 h at 32 gC, after which […] of 10 mM monochlorobimane was added (in the dark), and samples were further incubated in the dark at 32 gC for 30 min. Fluorescence readings were then obtained using a BIO-TEK Synergy HT plate reader (λex 380 nm; λem 485 nm).

The subject of assay [2] is H522 cells. Briefly: Apoptosis and cell cycle progression, H522. The assay is classed as cell-based. The note with it: H522, 4 uM PEITC. From the text: The negative effects of PEITC on cell proliferation might affect the apoptotic potential of the cells and the cell cycle progression.
Assay [3] addresses T2, p53 in H1299-143A cells (Homo sapiens, UniProt P04637, V143A).
T2 construct: expressed in transfected cells; host or cells: H1299-143A
Kind of assay: PEITC-induced p53 depletion in H1299-143A cells, mutant vs wild-type conformation. The assay is classed as cell-based. The note with it: 20 μM PEITC, 24 h. How it is done: FIG. 2 depicts PEITC depleting p53 protein in human cancer cells with different p53 mutation but not in cells with wild-type p53. (A) Cell lines harboring mutant p53 were treated with 15 μM PEITC (MDA-MB-231, MDA-MB-468, and SCC-4) or 10 μM PEITC (DU145 and SW480) for the indicated times. (B) Cells with wild-type p53 were treated with 20 μM PEITC (HCT116, A549, and MCF-7) or 15 μM PEITC (MCF-10A) for the indicated times. […] H1299-175H cells are used as control. Both cells were treated with 20 μM PEITC for 24 h.

Assay [4] deals with DU145 (mutant p53) xenograft tumors. Kind of assay: Xenograft model, DU145 tumors, PEITC diet. The assay is classed as in vivo, BALB/C nu/nu transgenic mice. How it is done: (§1) Briefly, 30 BALB/C nu/nu transgenic mice (purchased from Charles River) were randomized into two groups, and fed with powder diet AlN93 (purchased from Research Diets, Inc.) with or without addition of 5 μM PEITC compound (purchased from Sigma-Aldrich). After two weeks of feeding, two xenograft tumors each carrying […] in a volume of 100 μL were established by injection into both flanks of a mouse. Mice were continuously fed with diets with or without PEITC for additional 8 weeks before sacrifice. Diet intake and tumor volume were measured twice every week. Tumors were harvested at the end of bioassay for immunohistochemistry and immunoblot studies. […] Immunohistochemistry assays were carried out to examine the apoptotic markers, such as TUNEL, and anti-proliferation marker Ki67 in tumors from the PEITC-treated vs. untreated mice. This study provides the first in vivo evidence that mutant p53 can be depleted in tumors of mice fed PEITC-containing diet and its depletion seems to correlate with growth inhibition in the mutant p53 tumors.

Assay [5] concerns LNCap (wild-type p53) xenograft tumors. Briefly: Xenograft model, LNCap tumors, PEITC diet. The assay is classed as in vivo, BALB/C nu/nu transgenic mice. As for the experimental part: as §1
Assay [6] has as its target T3, mutant p53 protein in H596 (G245C) non-small-cell lung cancer cells (Homo sapiens, UniProt P04637, G245C).
T3 construct: host or cells: H596
Kind of assay: Immunoblot of mutant p53 protein in H596 cells. The assay is classed as cell-based. The text has this: Human H596, A549, HCT116, MDA-MB-231, MDA-MB-468, MCF-7, DU145, MCF-10A, SW480, and SCC-4 cells were obtained from ATCC (Manassas, Va.). H1299-175H cells were kindly provided by Dr. Maria Laura Avantaggiati (Georgetown University). Cells were maintained in DMEM or RPMI-1640 medium supplemented with 10% FBS (Hyclone). […] 2,2-Diphenylethyl ITC, 4-phenoxybenzyl ITC, 4-methoxybenzyl ITC, 4-chlorobenzyl ITC, Dα-methylbenzyl ITC, trityl ITC, and 3-phenylpropyl ITC were purchased from Trans World Chemicals (Rockville, Md.). Erucin and 4-phenylbutyl ITC were from LKT Laboratories, Inc. (St. Paul, Minn.). […] The p53 DO-1 and β-actin antibodies were purchased from Santa Cruz Biotechnology (Santa Cruz, Calif.), horseradish peroxidase-labeled goat antimouse secondary antibodies were purchased from GE-Healthcare (Pittsburgh, Pa.), and Bio-Rad Protein Assay was from Bio-Rad (Hercules, Calif.).
Whole cell lysates were prepared in lysis buffer (20 mM HEPES, pH 7.4, 2 mM EGTA, 50 mM β-glycerol phosphate, 1% Triton X-100, 10% glycerol, 1 mM DTT, 1 mM PMSF, […], 1 mM Na3-VO4, and 5 mM NaF). For immunoblot analysis, equal amounts of protein were resolved on 4-12% NuPAGE BisTris gels (Invitrogen) and transferred to PVDF membranes (Millipore). The membranes were blocked with 5% milk in TBST and were then probed with p53 (DO-1) or β-actin antibody. Proteins were detected using enhanced chemiluminescence (ECL) reagents (GE Healthcare).

`S=C=NCCc1ccccc1` [PEITC, phenethyl isothiocyanate]: the “binding affinity for mutant (G245C) p53 DBD (free thiols, relative fluorescence)” value in assay [1] is “greater binding affinities”. Further, in assay [2], the “apoptosis compared to DMSO treated cells” value was “two fold increase”. Moreover, in assay [2], the cell cycle progression result was “S-phase arrest”. Besides, the “sensitivity to PEITC-induced p53 depletion, mutant conformation (37° C.) vs wild-type conformation (32.5° C.)” value in assay [3] is “more sensitive”. Also, the “p53 level in tumors detected by immunoblot” value in assay [4] (DU145 tumors, PEITC diet) was “moderate, yet significant, decrease”; in assay [5] (LNCap tumors, PEITC diet), “not in LNCap tumors”. Moreover, the tumor volume result is on record as “significantly decreased” in assay [4] (DU145 xenograft, diet with 5 μM PEITC vs diet without PEITC, 8 weeks) and “significantly decreased” in assay [5] (LNCap xenograft, diet with 5 μM PEITC vs diet without PEITC, 8 weeks). The “mutant p53 protein level” value in assay [6] (H596 (G245C), 15 μM PEITC, immunoblot) was “rapid depletion”. The “earliest time at which depletion of mutant p53 occurred” value in assay [6] (H596, 15 μM PEITC) amounted to 2 h. Besides, the “time at which depletion of mutant p53 peaked” value in assay [6] (H596, 15 μM PEITC, sustained during 24 h treatment) is given as 4 h. In assay [6] (H596, 20 μM ITCs, 24 h, compared with DMSO control), the “depletion of mutant p53 at equimolar concentrations” value is “approximately the same extent”.
